Measurements reported in patent publication US20220409620A1, “REDUCING IMMUNOGENICITY TO PEGLOTICASE” (Horizon Pharma Rheumatology LLC, priority 2016, published 2022).

System: adult patients with uncontrolled gout
Test: Serum uric acid (sUA) levels and sUA responder rate, open-label study of pegloticase with MTX (MIRROR OL)
Format: in vivo, human
Conditions: mITT Population
Protocol: The primary objective is to estimate the response rate during Month 6 (Weeks 20, 22, and 24), as measured by the sustained normalization of serum uric acid (SUA) to <6 mg/dL for at least 80% of the time during Month 6 in subjects receiving KXX with MTX.
The primary efficacy outcome endpoint is the sustained normalization of SUA to <6 mg/dL for at least 80% of the time during month 6 (weeks 20, 22, and 24) in subjects receiving KXX with MTX. […] Participants who achieve this endpoint were classified as “responders.” Serum uric acid (SUA) responders may also be defined as participants achieving and maintaining SUA <6 mg/dL for at least 80% of the time during Month 6 (Weeks 20, 22, and 24).
Blood samples may be collected prior to each pegloticase infusion for measurement of SUA levels using the Beckman Coulter AU System Uric Acid procedure. Participants were declared “non-responders” if there were SUA measures >6 mg/dL at 2 consecutive study visits beginning with the week 2 visit. […] This assumption and subsequent discontinuation of pegloticase was consistent with the protocol of large phase III randomized controlled trials and the product label. A formal stopping rule was 2 occasions of SUA levels of greater than 6 mg/dL.
Clinical Chemistry—Blood samples were collected prior to each pegloticase infusion for measurement of SUA levels (primary efficacy parameter) using the Beckman Coulter AU System Uric Acid procedure. In this procedure uric acid is converted to hydrogen peroxide. Hydrogen peroxide reacts with reagent to produce a chromophore which is read bichromatically at 660/800 nm. The amount of dye formed is proportional to the uric acid concentration in the sample.
Serum samples for measurement of SUA levels were collected at the Screening Visit, the Week −4 Visit (prior to the first dose of MTX), and the Week −2 Visit during the MTX Run-in Period; within 48 hours prior to each pegloticase infusion and after the end of each pegloticase infusion prior to discharge from the site during the Pegloticase+IMM Period; at the non-infusion Week 52/End of Study/Early Termination Visits and at the Post Treatment 3 and 6 Month Follow-up Visits. Additional serum samples for SUA levels were collected at optional non-infusion (Frequent Sampling) Visits at Weeks 1 and 7. […] Subjects with SUA level >6 mg/dL at 2 consecutive visits beginning at Week 2 visit discontinued treatment, completed the End of Pegloticase Infusion Visit procedures within 2 weeks and continued the subject visits according to the protocol (without treatment).
Efficacy analyses were performed using the modified intention-to-treat (mITT) population, defined as all enrolled subjects who received ≥1 dose of pegloticase. The proportion of Month 6 responders was summarized, along with a 95% confidence interval for the proportion. The proportion of Month 3 and overall (Months 3 and 6 combined) responders was analyzed similarly.
A subject was declared a non-responder if the subject had SUA level >6 mg/dL at 2 consecutive study visits beginning with the Week 2 Visit. In addition, a subject who withdraws from study treatment for any reason after the first dose of pegloticase in the KXX+MTX Period and prior to Month 6 (for the primary endpoint) or Month 3 (for the secondary endpoint) was considered a non-responder if SUA values were not collected at the planned time points.
Patients were administered oral MTX (15 mg/week) and folate (1 mg/day) 4 weeks prior to the first pegloticase infusion (Day 1) and throughout the pegloticase treatment period. Blood was drawn prior to each infusion to measure sUA level, monitor clinical parameters, and examine for ADA development. All patients followed typical IR prophylaxis protocols (fexofenadine one day before and the morning of each infusion and acetaminophen and IV corticosteroid the morning of each infusion).

**Q.** Which results are given for pegloticase?
**A.** Serum Uric Acid, Change from Baseline, Mean (SD) (Week 20 - Post-Infusion): −8.97 (2.810) mg/dL; Serum Uric Acid, Change from Baseline, Median (Week 20 - Post-Infusion): -8.80 mg/dL; Serum Uric Acid, Observed, Mean (SD) (Week 20 - Post-Infusion): 0.30 (0.000) mg/dL; Serum Uric Acid, Observed, Median (Week 20 - Post-Infusion): 0.30 mg/dL; sUA <6 mg/dL, n (%) (Week 20 - Post-Infusion): 11 (100%); Serum Uric Acid, Change from Baseline, Mean (SD) (Week 20 - Pre-Infusion): −8.97 (2.810) mg/dL; Serum Uric Acid, Change from Baseline, Median (Week 20 - Pre-Infusion): -8.80 mg/dL; Serum Uric Acid, Observed, Mean (SD) (Week 20 - Pre-Infusion): 0.30 (0.000) mg/dL; Serum Uric Acid, Observed, Median (Week 20 - Pre-Infusion): 0.30 mg/dL; sUA <6 mg/dL, n (%) (Week 20 - Pre-Infusion): 11 (100%); Serum Uric Acid, Change from Baseline, Mean (SD) (Week 22 - Post-Infusion): −8.97 (2.810) mg/dL; Serum Uric Acid, Change from Baseline, Median (Week 22 - Post-Infusion): -8.80 mg/dL; Serum Uric Acid, Observed, Mean (SD) (Week 22 - Post-Infusion): 0.30 (0.000) mg/dL; Serum Uric Acid, Observed, Median (Week 22 - Post-Infusion): 0.30 mg/dL; sUA <6 mg/dL, n (%) (Week 22 - Post-Infusion): 11 (100%); Serum Uric Acid, Change from Baseline, Mean (SD) (Week 22 - Pre-Infusion): −8.97 (2.810) mg/dL; Serum Uric Acid, Change from Baseline, Median (Week 22 - Pre-Infusion): -8.80 mg/dL; Serum Uric Acid, Observed, Mean (SD) (Week 22 - Pre-Infusion): 0.30 (0.000) mg/dL; Serum Uric Acid, Observed, Median (Week 22 - Pre-Infusion): 0.30 mg/dL; sUA <6 mg/dL, n (%) (Week 22 - Pre-Infusion): 11 (100%); Serum Uric Acid, Change from Baseline, Mean (SD) (Week 24 - Post-Infusion): −9.18 (4.135) mg/dL; Serum Uric Acid, Change from Baseline, Median (Week 24 - Post-Infusion): -9.30 mg/dL; Serum Uric Acid, Observed, Mean (SD) (Week 24 - Post-Infusion): 0.30 (0.000) mg/dL; Serum Uric Acid, Observed, Median (Week 24 - Post-Infusion): 0.30 mg/dL; sUA <6 mg/dL, n (%) (Week 24 - Post-Infusion): 5 (100%); Serum Uric Acid, Change from Baseline, Mean (SD) (Week 24 - Pre-Infusion): −8.97 (2.810) mg/dL; Serum Uric Acid, Change from Baseline, Median (Week 24 - Pre-Infusion): -8.80 mg/dL; Serum Uric Acid, Observed, Mean (SD) (Week 24 - Pre-Infusion): 0.30 (0.000) mg/dL; Serum Uric Acid, Observed, Median (Week 24 - Pre-Infusion): 0.30 mg/dL; sUA <6 mg/dL, n (%) (Week 24 - Pre-Infusion): 11 (100%); Serum Uric Acid, Change from Baseline, Mean (SD) (Week 26 - Pre-Infusion): −9.11 (3.293) mg/dL; Serum Uric Acid, Change from Baseline, Median (Week 26 - Pre-Infusion): -8.95 mg/dL; Serum Uric Acid, Observed, Mean (SD) (Week 26 - Pre-Infusion): 0.30 (0.000) mg/dL; Serum Uric Acid, Observed, Median (Week 26 - Pre-Infusion): 0.30 mg/dL; sUA <6 mg/dL, n (%) (Week 26 - Pre-Infusion): 8 (100%); Serum Uric Acid, Change from Baseline, Mean (SD) (Week 28 - Pre-Infusion): −9.11 (3.293) mg/dL; Serum Uric Acid, Change from Baseline, Median (Week 28 - Pre-Infusion): -8.95 mg/dL; Serum Uric Acid, Observed, Mean (SD) (Week 28 - Pre-Infusion): 0.30 (0.000) mg/dL; Serum Uric Acid, Observed, Median (Week 28 - Pre-Infusion): 0.30 mg/dL; sUA <6 mg/dL, n (%) (Week 28 - Pre-Infusion): 8 (100%); Serum Uric Acid, Change from Baseline, Mean (SD) (Week 30 - Pre-Infusion): −9.11 (3.293) mg/dL; Serum Uric Acid, Change from Baseline, Median (Week 30 - Pre-Infusion): -8.95 mg/dL; Serum Uric Acid, Observed, Mean (SD) (Week 30 - Pre-Infusion): 0.30 (0.000) mg/dL; Serum Uric Acid, Observed, Median (Week 30 - Pre-Infusion): 0.30 mg/dL; sUA <6 mg/dL, n (%) (Week 30 - Pre-Infusion): 8 (100%); Serum Uric Acid, Change from Baseline, Mean (SD) (Week 32 - Post-Infusion): −9.11 (3.293) mg/dL; Serum Uric Acid, Change from Baseline, Median (Week 32 - Post-Infusion): -8.95 mg/dL; Serum Uric Acid, Observed, Mean (SD) (Week 32 - Post-Infusion): 0.30 (0.000) mg/dL; Serum Uric Acid, Observed, Median (Week 32 - Post-Infusion): 0.30 mg/dL; sUA <6 mg/dL, n (%) (Week 32 - Post-Infusion): 8 (100%); Serum Uric Acid, Change from Baseline, Mean (SD) (Week 32 - Pre-Infusion): −8.99 (2.961) mg/dL; Serum Uric Acid, Change from Baseline, Median (Week 32 - Pre-Infusion): -8.95 mg/dL; Serum Uric Acid, Observed, Mean (SD) (Week 32 - Pre-Infusion): 0.30 (0.000) mg/dL; Serum Uric Acid, Observed, Median (Week 32 - Pre-Infusion): 0.30 mg/dL; sUA <6 mg/dL, n (%) (Week 32 - Pre-Infusion): 10 (100%); Serum Uric Acid, Change from Baseline, Mean (SD) (Week 34 - Post-Infusion): −9.11 (3.293) mg/dL; Serum Uric Acid, Change from Baseline, Median (Week 34 - Post-Infusion): -8.95 mg/dL; Serum Uric Acid, Observed, Mean (SD) (Week 34 - Post-Infusion): 0.30 (0.000) mg/dL; Serum Uric Acid, Observed, Median (Week 34 - Post-Infusion): 0.30 mg/dL; sUA <6 mg/dL, n (%) (Week 34 - Post-Infusion): 8 (100%); Serum Uric Acid, Change from Baseline, Mean (SD) (Week 34 - Pre-Infusion): −8.47 (3.248) mg/dL; Serum Uric Acid, Change from Baseline, Median (Week 34 - Pre-Infusion): -7.95 mg/dL
